# Experiments:
# [1] = test system: formalin-induced nociceptive behavior; assay: Formalin test in the rat (phase II, chronic pain component); type: in vivo; settings: for Formalin test rat i.v. @ 10 mg/kg % reduction in noiceptive behavior: comparison experiments table; for Formalin test rat i.v. % reduction in nociceptive behavior: phase II, Table 3
# Description: Formalin Test in the Rat The formalin test (Dubuisson, D. and Dennis, S. G., 1977, Pain, 4, 161-174) represents a model for both acute and chronic pain. In the studies presented here, the chronic pain component (phase II of the formalin test; time period 21-27 min after formalin administration) was evaluated. A biphase nociceptive reaction is induced in freely mobile test animals by a single formalin injection into the dorsal side of a rear paw, the reaction being detected by observation of three clearly distinguishable behavior patterns. Formalin is administered subcutaneously into the dorsal side of the right rear paw of each animal in a volume of 50 μl and a concentration of 5%. The vehicle and the test substances are administered intravenously 5 min, or orally 30 min, before the formalin injection. The specific changes in behavior, such as lifting and shaking of the paw, weight displacement of the animal and biting and licking reactions, are observed and recorded continuously up to 60 min after the formalin administration. […] Rats of the strain Sprague Dawley (Janvier, Belgium) are used as the animal strain. The weight of the animals is 180-200 g; the size of the group was n=10.
# hKCNQ2/3 [2] = biological target: T1, hKCNQ2/3 (Homo sapiens, UniProt O43525+O43526); assay: Fluorescence assay using a voltage sensitive dye (fluorimetry); type: cell-based; settings: for Emax at 10 µM: relative to retigabine = 100%
# T1 construct: expressed in transfected cells; host or cells: CHO-K1
# Description: Fluorescence Assay using a Voltage Sensitive Dye
# […] CHO-K1 cells expressing KCNQ2/3 channels are cultivated adherently at 37° C., 5% CO2 and 95% humidity in cell culture bottles (e.g. 80 cm^2 TC flasks, Nunc) with DMEM-high glucose (Sigma Aldrich, D7777) including 10% FCS (PAN Biotech, e.g. 3302-P270521) or alternatively MEM Alpha Medium (1×, liquid, Invitrogen, #22571), 10% fetal calf serum (FCS) (Invitrogen, #10270-106, heat-inactivated) and the necessary selection antibiotics.
# Before being sown out for the measurements, the cells are washed with a 1×DPBS buffer without Ca^2+/Mg^2+ (e.g. Invitrogen, #14190-094) and detached from the bottom of the culture vessel by means of Accutase (PAA Laboratories, #L11-007) (incubation with Accutase for 15 min at 37° C.). The cell count then present is determined using a CASY™ cell counter (TCC model, Schärfe System) in order subsequently to apply, depending on the density optimization for the individual cell line, 20,000-30,000 cells/well/100 μl of the described nutrient medium to 96-well measuring plates of the Corning™ CellBIND™ type (Flat Clear Bottom Black Polystyrene Microplates, #3340). Incubation is then carried out for one hour at room temperature, without gassing or adjusting the humidity, followed by incubation for 24 hours at 37° C., 5% CO2 and 95% humidity.
# The voltage-sensitive fluorescent dye from the Membrane Potential Assay Kit (Red™ Bulk format part R8123 for FLIPR, MDS Analytical Technologies™) is prepared by dissolving the contents of a vessel Membrane Potential Assay Kit Red Component A in 200 ml of extracellular buffer (ES buffer, 120 mM NaCl, 1 mM KCl, 10 mM HEPES, 2 mM CaCl2, 2 mM MgCl2, 10 mM glucose; pH 7.4). After removal of the nutrient medium, the cells are washed with 200 μl of ES buffer, then covered with a layer of 100 μl of the dye solution prepared above and incubated for 45 min at room temperature with the exclusion of light.
# The fluorescence measurements are carried out with a BMG Labtech FLUOstar™, BMG Labtech NOVOstar™ or BMG Labtech POLARstar™ instrument (525 nm excitation, 560 nm emission, Bottom Read mode). After incubation of the dye, 50 μl of the test substances in the desired concentrations, or 50 μl of ES buffer for control purposes, are introduced into separate cavities of the measuring plate and incubated for 30 min at room temperature while being shielded from light. The fluorescence intensity of the dye is then measured for 5 min and the fluorescence value F1 of each well is thus determined at a given, constant time. 15 μl of a […] KCl solution ([…]) are then added to each well. The change in fluorescence is subsequently measured until all the relevant measured values have been obtained (mainly 5-30 min). At a given time after KCl application, a fluorescence value F2 is determined, in this case at the time of the fluorescence peak.
# For calculation, the fluorescence intensity F2 is compared with the fluorescence intensity F1, and the agonistic activity of the target compound on the potassium channel is determined therefrom. F2 and F1 are calculated as follows: […]
# In order to determine whether a substance has agonistic activity, […]
# for example, can be compared with […]
# is determined by adding to the reaction batch only the buffer solution instead of the test substance, determining the value F1K of the fluorescence intensity, adding the potassium ions as described above, and measuring a value F2K of the fluorescence intensity. F2K and F1K are then calculated as follows: […]
# A substance has an agonistic activity on the potassium channel when […]
# Independently of the comparison of […]
# it is possible to conclude that a target compound has agonistic activity if an increase in […]
# is to be observed as the dosage of the target compound increases.
# Calculations of EC50 and IC50 values are carried out with the aid of ‘Prism v4.0’ software (GraphPad Software™).
# hKCNQ2/3 [3] = biological target: T1, hKCNQ2/3; assay: Voltage clamp (patch-clamp) measurements on stably transfected hKCNQ2/3 CHO-K1 cell line; type: cell-based; settings: at -40 mV, relative to retigabine (10 μM) = 100%, read-out: patch-clamp % Efficacy @ 10 μM (retigabine = 100%)
# Description: Voltage Clamp Measurements
# In order to confirm a KCNQ2/3-agonistic action of the substances electro-physiologically, patch-clamp measurements (Hamill O P, Marty A, Neher E, Sakmann B, Sigworth F J.: Improved patch-clamp techniques for high-resolution current recording from cells and cell-free membrane patches, Pflugers Arch. 1981 August; 391(2):85-100) were carried out in voltage clamp mode on a stably transfected hKCNQ2/3 CHO-K1 cell line. After formation of the gigaseal, the cells were first clamped at a holding potential of −60 mV. Thereafter, depolarizing voltage jumps were applied up to a potential of +20 mV (increment: 20 mV, duration: 1 second) in order to confirm the functional expression of KCNQ2/3-typical currents. The testing of the substances was carried out at a potential of −40 mV. The increase in current induced by retigabine (10 μM) at −40 mV was first recorded as a positive control on each cell. After complete washing out of the retigabine effect (duration: 80 s), the test substance (10 μM) was applied. The increase in current induced by the test substance was standardized to the retigabine effect and indicated as the relative efficacy (see below).
# [4] = 10 μM, comparison experiments table, read-out: Fluorimetry % Efficacy @ 10 μM (retigabine = 100%)
# [5] = CHO-K1, 10 μM, CHO-K1 cells expressing KCNQ2/3, Table 3, read-out: Fluorimetry % Efficacy @ 10 μM (reti-gabine = 100%)
# [6] = CHO-K1 cells expressing KCNQ2/3, Table 3
Structure (SMILES),Emax at 10 µM (hKCNQ2/3 [2]; [5]) [%],EC50 (hKCNQ2/3 [2]; [6]) [nM],also measured
"O=C(CCC(=O)N1CCn2cccc2C1c1ccccc1)NCc1cccc(C(F)(F)F)c1 (stereo not drawn) [Example No. 2 of WO 2008/046582, reference compound]",,,Formalin test rat i.v. @ 10 mg/kg % reduction in noiceptive behavior [1]: no effect; Emax at 10 µM (hKCNQ2/3 [2]; [4]): 115%; EC50 (hKCNQ2/3 [2]; comparison experiments table): 2810 nM
"O=C(CCC(=O)N1CCc2sccc2C1c1ccccc1)NCc1cccc(C(F)(F)F)c1 (stereo not drawn) [Illustrative compound 2, 4-oxo-4-(4-phenyl-6,7-dihydrothieno[3,2-c]pyridin-5(4H)-yl)-N-(3-(trifluoromethyl)benzyl)butanamide]",165,758,Formalin test rat i.v. @ 10 mg/kg % reduction in noiceptive behavior [1]: 56%; Formalin test rat i.v. % reduction in nociceptive behavior ([1]; dose 10.0 mg/kg): 56 (10.0) %; Emax at 10 µM (hKCNQ2/3 [3]): 106%; Emax at 10 µM (hKCNQ2/3 [2]; [4]): 145%; EC50 (hKCNQ2/3 [2]; comparison experiments table): 1440 nM
O=C(CCC(=O)N1CCc2sccc2C1c1cccs1)NCc1cccc(C(F)(F)F)c1 (stereo not drawn) [compound 1],168,1690,Emax at 10 µM (hKCNQ2/3 [3]): 97%; Emax at 10 µM (hKCNQ2/3 [2]; [4]): 165%; EC50 (hKCNQ2/3 [2]; comparison experiments table): 760 nM
Cc1ccccc1C1c2ccsc2CCN1C(=O)CCC(=O)NCc1cccc(C(F)(F)F)c1 (stereo not drawn) [compound 8],148,79,Formalin test rat i.v. % reduction in nociceptive behavior ([1]; dose 4.64 mg/kg): 11 (4.64) %
O=C(CCC(=O)N1CCc2sccc2C1c1ccccc1)NCc1ccccc1C(F)(F)F (stereo not drawn) [compound 17],74,62,Formalin test rat i.v. % reduction in nociceptive behavior ([1]; dose 10.0 mg/kg): 15 (10.0) %
O=C(CCC(=O)N1CCc2sccc2C1C1CC1)NCc1cccc(C(F)(F)F)c1 (stereo not drawn) [compound 260],,108,Formalin test rat i.v. % reduction in nociceptive behavior ([1]; dose 4.64 mg/kg): 46 (4.64) %; Emax at 10 µM (hKCNQ2/3 [3]): 91%
O=C(CCC(=O)N1CCc2sccc2C1C1CCCC1)NCc1cccc(C(F)(F)F)c1 (stereo not drawn) [compound 263],,160,
O=C(CCC(=O)N1CCc2sccc2C1CCCc1ccccc1)NCc1cccc(C(F)(F)F)c1 (stereo not drawn) [compound 265],,596,
O=C(CCC(=O)N1CCc2sccc2C1c1ccccc1)N1CCc2ccc(C(F)(F)F)cc2C1 (stereo not drawn) [compound 269],,519,
O=C(CCC(=O)N1CCc2sccc2C1c1ccccc1)N1CCc2c(cccc2C(F)(F)F)C1 (stereo not drawn) [compound 271],,431,
Cc1ccccc1C1c2sccc2CCN1C(=O)CCC(=O)NCc1cccc(C(F)(F)F)c1 (stereo not drawn) [compound 274],,323,
O=C(CCC(=O)N1CCc2ccsc2C1C1CCCCC1)NCc1cccc(C(F)(F)F)c1 (stereo not drawn) [compound 275],,962,

# From US20100105722A1, “Substituted 4,5,6,7-tetrahydrothienopyridines as KCNQ2/3 Modulators” (GRUENENTHAL GmbH, priority 2008, published 2010)
